Results on one molecule are retold here after patent US8741836B2, “Polypeptides” (Novo Nordisk A/S, priority 2011, dated 2014).

Series [1] addresses T1, rat amylin 3(a) receptor (rat calcitonin(a) receptor+rat RAMP3) (Rattus norvegicus, UniProt P32214+Q9JJ73).
T1 construct: expressed in transfected cells; host or cells: BHK tk'ts 13 (transient, FuGENE 6)
T1 sequence (P32214 25-479 isoform P32214-2 limits assumed): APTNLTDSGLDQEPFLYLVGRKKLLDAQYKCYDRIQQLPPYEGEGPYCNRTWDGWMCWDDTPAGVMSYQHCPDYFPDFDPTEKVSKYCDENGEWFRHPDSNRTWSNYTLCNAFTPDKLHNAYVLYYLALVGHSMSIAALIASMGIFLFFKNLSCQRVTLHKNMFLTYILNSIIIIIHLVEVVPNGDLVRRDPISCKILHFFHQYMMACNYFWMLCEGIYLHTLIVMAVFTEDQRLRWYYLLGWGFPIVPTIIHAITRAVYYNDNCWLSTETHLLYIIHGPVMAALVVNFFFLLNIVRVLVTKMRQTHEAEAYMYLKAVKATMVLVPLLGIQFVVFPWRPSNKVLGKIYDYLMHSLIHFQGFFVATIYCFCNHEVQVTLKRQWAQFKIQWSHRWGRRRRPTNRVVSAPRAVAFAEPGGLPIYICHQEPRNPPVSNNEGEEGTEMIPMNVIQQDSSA
T1 sequence (Q9JJ73 24-147 partner limits assumed): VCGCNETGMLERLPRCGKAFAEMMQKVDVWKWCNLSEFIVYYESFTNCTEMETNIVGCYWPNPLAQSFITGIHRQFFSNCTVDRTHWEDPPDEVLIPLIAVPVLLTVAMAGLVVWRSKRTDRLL
The series is described as follows: Assay (II)b functional assay, rat amylin receptor (cAMP FlashPlate). Conditions: Table 11. In kind it is cell-based. The text has this: Assay (II)b—Rat Calcitonin and Rat Amylin Receptor Assays
Activation of calcitonin and amylin (coexpression of calcitonin receptor and receptor activity modifying proteins (RAMP)) receptors lead to increased intracellular concentrations of cAMP. In order to quantify the cAMP levels in transiently transfected cells the Adenylyl Cyclase Activation FlashPlate® Assay from Perkin Elmer was used. The basic principle of the FlashPlate® Assay is a competition between radioactive and non-radioactive cAMP generated by the cells for a fixed number of binding sites.
Construction of Rat Calcitonin(a)- and Rat Amylin 3(a)-Receptor Cells.
BHK tk'ts 13 cells were transiently transfected with either rat calcitonin (a) receptor or amylin 3 (a) receptor (rat calcitonin(a) receptor+rat RAMP3) using FuGENE® 6 (Roche), according to the manufacturers recommendations.
24 hours after transient transfection the cells (rat calcitonin(a)- or rat amylin 3(a)-receptor cells) were added (100.000 cells/well) to the 96 well FlashPlates® with samples or standard in FlashPlate stimulation buffer with IBMX and incubated for 30 min. Detection mix was created according to manufacturers protocol and scintillation measured after 3 h of incubation on TopCounter™ (Packard).

A short description of series [2]: Assay (IV) determination of solubility. In kind it is physicochemical. On the procedure: Assay (IV)—Determination of Solubility
The polypeptide was dissolved in water at −500 nmol/ml and mixed 1:1 with a series of buffers (100 mM glycylglycine pH 3.0, 100 mM glycylglycine pH 4.0, 100 mM glycylglycine pH 5.0, 100 mM bistrispropane pH 6.0, 100 mM bistrispropane pH 6.5, 100 mM bistrispropane pH 7.0, 100 mM bistrispropane pH 7.5, 100 mM bistrispropane pH 8.0). After 18 hours at room temperature the samples were centrifuged and the polypeptide concentration determined by HPLC.

Molecules are shown by their SMILES. Like-named read-outs stand apart in the source and are kept apart here. Starred links: 1 amine or outer side, 2 acyl side, 3 side chain; linkers in the order of their positions; H or OH if unused. Positions of bridges follow the written chain, without caps; N, C: chain ends. Residues, ends and D or L forms follow the SMILES beside them. Groups on a side chain read outwards from the residue. *: point of attachment. C18 diacid = O=C(O)CCCCCCCCCCCCCCCCC(=O)*; γGlu = O=C(O)[C@H](CCC(=O)[*:2])N[*:1]; AEEA = NCCOCCOCC(=O)O

Regarding `CC[C@H](C)[C@H](NC(=O)[C@@H]1CCCN1C(=O)CNC(=O)[C@H](Cc1ccccc1)NC(=O)[C@H](CC(N)=O)NC(=O)[C@H](CCCCNC(=O)COCCOCCNC(=O)COCCOCCNC(=O)CC[C@H](NC(=O)CCCCCCCCCCCCCCCCC(=O)O)C(=O)O)NC(=O)[C@H](CO)NC(=O)[C@H](CO)NC(=O)[C@H](Cc1c[nH]cn1)NC(=O)[C@H](Cc1c[nH]cn1)NC(=O)[C@H](CC(C)C)NC(=O)[C@H](Cc1ccccc1)NC(=O)[C@H](CCC(=O)O)NC(=O)[C@H](C)NC(=O)[C@H](CC(C)C)NC(=O)[C@H](CCCNC(=N)N)NC(=O)[C@H](CCC(N)=O)NC(=O)[C@@H](NC(=O)[C@H](C)NC(=O)[C@@H]1CSSC[C@H](NC(=O)[C@@H](N)CCCCN)C(=O)N[C@@H](CC(N)=O)C(=O)N[C@@H]([C@@H](C)O)C(=O)N[C@@H](C)C(=O)N[C@@H]([C@@H](C)O)C(=O)N1)[C@@H](C)O)C(=O)N[C@@H](CC(C)C)C(=O)N1CCC[C@H]1C(=O)N1CCC[C@H]1C(=O)N[C@H](C(=O)N[C@@H](CC(N)=O)C(=O)N[C@H](C(=O)NCC(=O)N[C@@H](CO)C(=O)N[C@@H](CCC(=O)O)C(=O)N[C@H](C(=O)N[C@@H](Cc1ccc(O)cc1)C(N)=O)[C@@H](C)O)C(C)C)[C@@H](C)O` [Example 74, N-epsilon21-[2-(2-{2-[2-(2-{2-[(S)-4-Carboxy-4-(17-carboxyheptadecanoylamino)butyrylamino]ethoxy}ethoxy)acetylamino]ethoxy}ethoxy)acetyl]-[Glu14,His17,Lys21,Glu35]-pramlintide] (H-KCNTATCATQRLAEFLHHSSK([AEEA-AEEA-γGlu-C18 diacid])NFGPILPPTNVGSETY-NH2; disulfide 2-7 (inferred); N-terminus and C-terminus assumed), in series [1], the EC50 (usually the concentration that produces a half-maximal response) was determined as 0.504 nM. Further, the solubility (as a rule, how much of the substance goes into solution per volume) at 18 h in series [2] (bistrispropane buffer, pH 6.5, read-out: Solubility) was > 200 µM; in series [2] (bistrispropane buffer, pH 7.5, read-out: Solubility pH 7.5) it was > 200 µM; in series [2] (bistrispropane buffer, pH 6.0, read-out: Solubility), > 200 µM; in series [2] (bistrispropane buffer, pH 7.0, read-out: Solubility pH 7.0) it was > 200 µM; in series [2] (bistrispropane buffer, pH 8.0, read-out: Solubility), > 200 µM; in series [2] (glycylglycine buffer, pH 3.0, read-out: Solubility), > 200 µM. In addition, the solubility at 18 h was > 200 µM in series [2] (glycylglycine buffer, pH 4.0, read-out: Solubility pH 4.0); > 200 µM in series [2] (glycylglycine buffer, pH 5.0, read-out: Solubility); >200 µM in series [2] (pH 4.0, read-out: Solubility); >200 µM in series [2] (pH 7.0, read-out: Solubility); >200 µM in series [2] (pH 7.5, read-out: Solubility).
